This is an account of results in patent US9199943B2, “2-(poly-substituted aryl)-6-amino-5-halo-4-pyrimidinecarboxylic acids and their use as herbicides” (Dow AgroSciences, LLC., priority 2006, dated 2015).

In data set [1] the test system is HELAN = sunflower (Helainthus annuus). The data set can be described thus: General postemergence herbicidal activity, sunflower. In kind it is in vivo. The following applies: post-emergent, 140 g ai/ha, visual score after 14 days (0 no injury, 100 complete kill); for pest or weed control at 140 g/ha: post-emergence, 336 h. The method, then: (§1) Seeds or nutlets of the desired test plant species were planted in Sun Gro MetroMix® 306 planting mixture, which typically has a pH of 6.0 to 6.8 and an organic matter content of about 30 percent, in plastic pots with a surface area of 64 square centimeters. When required to ensure good germination and healthy plants, a fungicide treatment and/or other chemical or physical treatment was applied. The plants were grown for 7-21 days in a greenhouse with an approximate 15 hour photoperiod which was maintained at about 23-29° C. during the day and 22-28° C. during the night. Nutrients and water were added on a regular basis and supplemental lighting was provided with overhead metal halide 1000-Watt lamps as necessary. The plants were employed for testing when they reached the first or second true leaf stage.
(§2) A weighed amount, determined by the highest rate to be tested, of each test compound was placed in a 25 mL glass vial and was dissolved in 4 mL of a 97:3 v/v (volume/volume) mixture of acetone and dimethyl sulfoxide (DMSO) to obtain concentrated stock solutions. […] The concentrated stock solutions obtained were diluted with 20 mL of an aqueous mixture containing acetone, water, isopropyl alcohol, DMSO, Atplus 411F crop oil concentrate, and Triton X-155 surfactant in a 48.5:39:10:1.5:1.0:0.02 v/v ratio to obtain spray solutions containing the highest application rates. Additional application rates were obtained by serial dilution of 12 mL of the high rate solution into a solution containing 2 mL of 97:3 v/v (volume/volume) mixture of acetone and dimethyl sulfoxide (DMSO) and 10 mL of an aqueous mixture containing acetone, water, isopropyl alcohol, DMSO, Atplus 411F crop oil concentrate, and Triton X-155 surfactant in a 48.5:39:10:1.5:1.0:0.02 v/v ratio to obtain ½×, ¼×, ⅛× and 1/16× rates of the high rate. Compound requirements are based upon a 12 mL application volume at a rate of 187 L/ha. Formulated compounds were applied to the plant material with an overhead Mandel track sprayer equipped with a 8002E nozzles calibrated to deliver 187 L/ha over an application area of 0.503 square meters at a spray height of 18 inches (43 cm) above the average plant canopy height. Control plants were sprayed in the same manner with the solvent blank.
(§3) The treated plants and control plants were placed in a greenhouse as described above and watered by sub-irrigation to prevent wash-off of the test compounds. After 14 days, the condition of the test plants as compared with that of the untreated plants was determined visually and scored on a scale of 0 to 100 percent where 0 corresponds to no injury and 100 corresponds to complete kill.
(§4) By applying the well-accepted probit analysis as described by J. Berkson in Journal of the […], 48, 565 (1953) and by D. Finney in “Probit Analysis” Cambridge University Press (1952), the above data can be used to calculate GR50 and GR80 values, which are defined as growth reduction factors that correspond to the effective dose of herbicide required to kill or control 50 percent or 80 percent, respectively, of a target plant.

Data set [2] concerns CHEAL = lambsquarter (Chenopodium album). The data set can be described thus: General preemergence herbicidal activity, lambsquarter. In kind it is in vivo. The following applies: pre-emergent, 140 g ai/ha, visual score after 20-22 days; for pest or weed control at 140 g/ha: Chenopodium album, pre-emergence, 480 h. The text has this:
(§5) Seeds of the desired test plant species were planted in a soil matrix prepared by mixing a loam soil (43 percent silt, 19 percent clay, and 38 percent sand, with a pH of about 8.1 and an organic matter content of about 1.5 percent) and sand in a 70 to 30 ratio. The soil matrix was contained in plastic pots with a surface area of 113 square centimeters. When required to ensure good germination and healthy plants, a fungicide treatment and/or other chemical or physical treatment was applied. A weighed amount, determined by the highest rate to be tested, of each test compound was placed in a 25 mL glass vial and was dissolved in 6 mL of a 97:3 v/v (volume/volume) mixture of acetone and DMSO to obtain concentrated stock solutions. […] The stock solutions obtained were diluted with 18 mL of a 0.1% v/v aqueous solution of Tween® 20 surfactant to obtain spray solutions containing the highest application rate. Additional application rates were obtained by serial dilution of 12 mL of the high rate solution into a solution containing 3 mL of 97:3 v/v mixture of acetone and DMSO and 9 mL of the 0.1% v/v aqueous solution of Tween® 20 surfactant to obtain 1⁄2×, 1⁄4×, 1⁄8× and 1/16× rates of the high rate. Compound requirements are based upon a 12 mL application volume at a rate of 187 L/ha. Formulated compounds were applied to the plant material with an overhead Mandel track sprayer equipped with a […] nozzles calibrated to deliver 187 L/ha over an application area of 0.503 square meters at a spray height of 18 inches (43 cm) above the soil surface. Control plants were sprayed in the same manner with the solvent blank. The treated pots and control pots were placed in a greenhouse maintained with an approximate 15 hour photoperiod and temperatures of about 23-29° C. during the day and 22-28° C. during the night. Nutrients and water were added on a regular basis and supplemental lighting was provided with overhead metal halide 1000-Watt lamps as necessary. The water was added by top-irrigation. After 20-22 days, the condition of the test plants that germinated and grew as compared with that of the untreated plants that emerged and grew was determined visually and scored on a scale of 0 to 100 percent where 0 corresponds to no injury and 100 corresponds to complete kill or no emergence.

Data set [3] has as its system ABUTH = velvetleaf (Abutilon theophrasti). Nature of the data set: General preemergence herbicidal activity, velvetleaf. The data set is classed as in vivo. The following applies: pre-emergent, 140 g ai/ha, visual score after 20-22 days; for pest or weed control at 140 g/ha: Abutilon theophrasti, pre-emergence, 480 h.
From the text: as §5

For data set [4], the system named is HELAN = sunflower (Helianthus annuus). The data set can be described thus: General preemergence herbicidal activity, sunflower. The following applies: pre-emergent, 140 g ai/ha, visual score after 20-22 days; for pest or weed control at 140 g/ha: Helianthus annuus, pre-emergence, 480 h. In kind it is in vivo.
From the text: as §5

The test system of data set [5] is CHEAL = lambsquarter (Chenopodium album). The data set can be described thus: General postemergence herbicidal activity, lambsquarter. In kind it is in vivo. The following applies: post-emergent, 140 g ai/ha, visual score after 14 days (0 no injury, 100 complete kill); for pest or weed control at 140 g/ha: Chenopodium album, post-emergence, 336 h. The method, then:
as §1, §2, §3, §4

The test system of data set [6] is ABUTH = velvetleaf (Abutilon theophrasti). Nature of the data set: General postemergence herbicidal activity, velvetleaf. In kind it is in vivo. The following applies: post-emergent, 140 g ai/ha, visual score after 14 days (0 no injury, 100 complete kill); for pest or weed control at 140 g/ha: Abutilon theophrasti, post-emergence, 336 h. The method, then:
as §1, §2, §3, §4

Regarding `COc1cc(-c2nc(N)c(Cl)c(C(=O)O)n2)c(F)cc1Cl` [Compound 17, 6-Amino-5-chloro-2-(4-chloro-2-fluoro-5-methoxyphenyl)pyrimidine-4-10 carboxylic acid], the “% Control HELAN” value in data set [1] worked out at 80%; in data set [4], 0%. The “% Control CHEAL” value in data set [2] was 95%; in data set [5], 100%. The “% Control ABUTH” value is given as 100% in data set [3] and 50% in data set [6].

Take `COC(=O)c1nc(-c2ccc(Cl)c(OC)c2F)nc(N)c1F` [Compound 12, 6-amino-2-(4-chloro-2-fluoro-3-methoxy-phenyl)-5-fluoro-pyrimidine-4-carboxylic acid methyl ester]: the melting point (as a rule, the temperature, or range, at which the solid turns liquid) fell in the range of 200 to 202 °C. The pest or weed control (usually the degree to which the test organism was suppressed or injured, in per cent) at 140 g/ha in data set [1] is 100%. The pest or weed control at 140 g/ha in data set [5] came out at 95%. The compound also gave a pest or weed control at 140 g/ha in data set [6] of 85%.

`Nc1nc(-c2ccc3c(c2F)OCO3)nc(C(=O)O)c1Cl` [Compound 22, 6-Amino-5-chloro-2-(4-fluoro-benzo[1,3]-dioxol-5-yl)pyrimidine-4-carboxylic acid]: the pest or weed control at 140 g/ha is 90% in data set [1], 95% in data set [5] and 80% in data set [6].

As to `COc1c(Cl)ccc(-c2nc(N)c(Cl)c(C(=O)O)n2)c1Cl` [Compound 18, 6-Amino-5-chloro-2-(2,4-dichloro-3-methoxyphenyl)pyrimidine-4-carboxylic acid], the pest or weed control at 140 g/ha in data set [1] amounted to 95%; in data set [2], 100%; in data set [3] it was 100%; in data set [4] it was 100%; in data set [5], 100%; in data set [6], 75%.

In turn, `COc1c(Cl)ccc(-c2nc(N)c(Cl)c(C(=O)O)n2)c1F` [Compound 15, 6-amino-5-chloro-2-(4-chloro-2-fluoro-3-methoxyphenyl)-pyrimidine-4-carboxylic acid] showed a melting point of 172 to 173 °C. In data set [1], the pest or weed control at 140 g/ha was found to be 100%. In addition, the pest or weed control at 140 g/ha in data set [2] was found to be 100%. The pest or weed control at 140 g/ha in data set [3] came to 100%. In data set [4], this compound gave a pest or weed control at 140 g/ha of 100%. The pest or weed control at 140 g/ha in data set [5] was 100%. Moreover, the pest or weed control at 140 g/ha in data set [6] worked out at 100%.

As for `Nc1nc(-c2ccc(Cl)c(C(F)F)c2F)nc(C(=O)O)c1Cl` [Compound 24, 6-Amino-5-chloro-2-(4-chloro-3-difluoromethyl-2-fluorophenyl)pyrimidine-4-carboxylic acid], the melting point was in the range of 166 to 168 °C. This compound had a pest or weed control at 140 g/ha in data set [1] of 90%. This compound showed a pest or weed control at 140 g/ha in data set [5] of 95%. Further, in data set [6], the pest or weed control at 140 g/ha amounted to 80%.

`Nc1nc(-c2ccc(Cl)c(OCC(F)F)c2F)nc(C(=O)O)c1Cl` [Compound 21, 6-Amino-5-chloro-2-[4-chloro-3-(2,2-difluoroethoxy)-2-fluorophenyl]-pyrimidine-4-carboxylic acid]: the pest or weed control at 140 g/ha in data set [1] amounted to 80%; in data set [5], 90%; in data set [6], 0%.

As to `Cc1c(Cl)ccc(-c2nc(N)c(Cl)c(C(=O)O)n2)c1F` [Compound 20, 6-Amino-5-chloro-2-(4-chloro-2-fluoro-3-methylphenyl)pyrimidine-4-carboxylic acid], the melting point lay in the range of 210 to 212 °C. The compound further gave a pest or weed control at 140 g/ha in data set [1] of 100%. This compound yielded a pest or weed control at 140 g/ha in data set [5] of 100%. In data set [6], this compound gave a pest or weed control at 140 g/ha of 90%.

`COC(=O)c1nc(-c2ccc(Cl)c(SC(F)(F)F)c2F)nc(N)c1Cl` [Compound 14, 6-amino-5-chloro-2-(4-chloro-2-fluoro-3-trifluoro-methylthiophenyl)pyrimidine-4-carboxylic acid methyl ester] displayed a melting point of 167 to 169 °C. This compound displayed a pest or weed control at 140 g/ha in data set [1] of 90%. The pest or weed control at 140 g/ha in data set [5] is 50%. The compound also registered a pest or weed control at 140 g/ha in data set [6] of 80%.

In the case of `COc1c(Cl)ccc(-c2nc(N)c(Br)c(C(=O)O)n2)c1F` [Compound 25, 6-Amino-5-bromo-2-(4-chloro-2-fluoro-3-methoxyphenyl)pyrimidine-4-carboxylic acid], the melting point lay in the range of 173 to 175 °C. Also, the pest or weed control at 140 g/ha in data set [1] was found to be 100%. The pest or weed control at 140 g/ha in data set [5] amounted to 100%. In data set [6], this compound registered a pest or weed control at 140 g/ha of 95%.

Regarding `CN(C)c1c(Cl)ccc(-c2nc(N)c(Cl)c(C(=O)O)n2)c1F` [Compound 23, 6-Amino-5-chloro-2-(4-chloro-3-dimethylamino-2-fluorophenyl)pyrimidine-4-carboxylic acid], the melting point fell in the range of 181 to 183 °C. The same compound came in with a pest or weed control at 140 g/ha in data set [1] of 95%. Besides, the pest or weed control at 140 g/ha in data set [5] was determined as 100%. This compound returned a pest or weed control at 140 g/ha in data set [6] of 95%.

Consider `Cc1c(F)sc(-c2nc(N)c(Cl)c(C(=O)O)n2)c1Cl` [Compound 16, 6-Amino-5-chloro-2-(4-chloro-2-fluoro-3-methylthiophenyl)pyrimidine-4-carboxylic acid], for which the melting point is 139 to 141 °C.

As to `COC(=O)c1nc(-c2cc(OC)c(Cl)cc2F)nc(N)c1Cl` [Compound 5, 6-Amino-5-chloro-2-(4-chloro-2-fluoro-5-methoxyphenyl)pyrimidine-4-carboxylic acid methyl ester], the pest or weed control at 140 g/ha in data set [1] is 95%; in data set [5], 100%; in data set [6] it was 95%.
